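Dose response: 5 concentrations. Exposure: 48 h. Format: 96-well plates. Endpoint: linear interpolation; highest concentration if not reached. GI50 = concentration required for 50% inhibition of growth.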 Active and inactive are the calls of the source. No stated cut-off is given here; in the data, active = GI50 up to about 1.1 µM and inactive = higher.
How the values were obtained:
Test in all cases: growth of human tumour cells (NCI), 48 h
UACC-257 = test system: UACC-257
A549 = test system: A549
M19-MEL = test system: M19-MEL
SK-MEL-5 = test system: SK-MEL-5
ACHN = test system: ACHN
K562 = test system: K562
SNB-75 = test system: SNB-75
XF498 = test system: XF498
HT-29 = test system: HT-29
HOP-62 = test system: HOP-62
HL-60 = test system: HL-60
Malme-3M = test system: Malme-3M
KM-20L2 = test system: KM-20L2
SF-539 = test system: SF-539
HCT-15 = test system: HCT-15
OVCAR-5 = test system: OVCAR-5
IGROV-1 = test system: IGROV-1
A498 = test system: A498
OVCAR-3 = test system: OVCAR-3
UO-31 = test system: UO-31
NCI-H226 = test system: NCI-H226
TK-10 = test system: TK-10
M14 = test system: M14
SK-MEL-2 = test system: SK-MEL-2
OVCAR-8 = test system: OVCAR-8
HCT-116 = test system: HCT-116
CCRF-CEM = test system: CCRF-CEM
SF-295 = test system: SF-295
HOP-92 = test system: HOP-92
SNB-19 = test system: SNB-19
NCI-H522 = test system: NCI-H522
UACC-62 = test system: UACC-62
SK-OV-3 = test system: SK-OV-3
SW-620 = test system: SW-620
COLO 205 = test system: COLO 205
DLD-1 = test system: DLD-1
LOX IMVI = test system: LOX IMVI
DMS-114 = test system: DMS-114
SK-MEL-28 = test system: SK-MEL-28
NCI-H23 = test system: NCI-H23
SN12C = test system: SN12C
EKVX = test system: EKVX
NCI-H460 = test system: NCI-H460
786-0 = test system: 786-0
U-251 = test system: U-251
OVCAR-4 = test system: OVCAR-4
RPMI-8226 = test system: RPMI-8226
LXFL 529 = test system: LXFL 529
SNB-78 = test system: SNB-78
DMS-273 = test system: DMS-273
SF-268 = test system: SF-268
CAKI-1 = test system: CAKI-1
HCC 2998 = test system: HCC 2998
MOLT-4 = test system: MOLT-4
SR = test system: SR
KM12 = test system: KM12
RXF 393 = test system: RXF 393
HOP-18 = test system: HOP-18

For `Cc1ccc(N2C(=O)/C(=C3\Sc4c(nc(C)[nH]c4=O)N3c3ccccc3)SC2=S)cc1`, the GI50 (UACC-257) was > 100 µM (inactive), the GI50 (A549) was 43 µM (inactive) and the GI50 (M19-MEL) was 63.5 µM (inactive). For the same compound, the GI50 (SK-MEL-5) was > 100 µM (inactive), the GI50 (ACHN) was 28.8 µM (inactive) and the GI50 (K562) was 32 µM (inactive). For the same compound, the GI50 (SNB-75) was 16.1 µM (inactive), the GI50 (XF498) was 20.9 µM (inactive) and the GI50 (HT-29) was 68.9 µM (inactive). The GI50 (HOP-62) was 10.4 µM (inactive), the GI50 (HL-60) was > 100 µM (inactive) and the GI50 (Malme-3M) was 46.8 µM (inactive). The GI50 (KM-20L2) was > 100 µM (inactive), the GI50 (SF-539) was 10 µM (inactive) and the GI50 (HCT-15) was 16.4 µM. The GI50 (OVCAR-5) was > 100 µM (inactive), the GI50 (IGROV-1) was 60.3 µM (inactive) and the GI50 (A498) was 34.4 µM (inactive). For the same compound, the GI50 (OVCAR-3) was 18.4 µM (inactive), the GI50 (UO-31) was 29.2 µM (inactive) and the GI50 (NCI-H226) was 30.5 µM (inactive). For the same compound, the GI50 (TK-10) was 24 µM (inactive), the GI50 (M14) was 19.7 µM (inactive) and the GI50 (SK-MEL-2) was 20.3 µM (inactive). For the same compound, the GI50 (OVCAR-8) was 34.6 µM (inactive), the GI50 (HCT-116) was 60.3 µM (inactive) and the GI50 (CCRF-CEM) was 44.6 µM (inactive). For the same compound, the GI50 (SF-295) was 18 µM (inactive), the GI50 (HOP-92) was 41.5 µM (inactive) and the GI50 (SNB-19) was 37.3 µM (inactive). For the same compound, the GI50 (NCI-H522) was 48.4 µM (inactive), the GI50 (UACC-62) was > 100 µM (inactive) and the GI50 (SK-OV-3) was 15.8 µM (inactive). For the same compound, the GI50 (SW-620) was > 100 µM (inactive), the GI50 (COLO 205) was > 100 µM (inactive) and the GI50 (DLD-1) was 91.2 µM (inactive). The GI50 (LOX IMVI) was 15.5 µM (inactive), the GI50 (DMS-114) was 72.6 µM (inactive) and the GI50 (SK-MEL-28) was > 100 µM (inactive). The GI50 (NCI-H23) was 19.8 µM (inactive), the GI50 (SN12C) was > 100 µM (inactive) and the GI50 (EKVX) was 91.8 µM (inactive). The GI50 (NCI-H460) was 22.2 µM (inactive), the GI50 (786-0) was 10.4 µM (inactive) and the GI50 (U-251) was 17.3 µM (inactive). For the same compound, the GI50 (OVCAR-4) was 29.2 µM (inactive), the GI50 (RPMI-8226) was > 100 µM (inactive) and the GI50 (LXFL 529) was 18.5 µM (inactive). The GI50 (SNB-78) was 39 µM (inactive), the GI50 (DMS-273) was 34.6 µM (inactive) and the GI50 (SF-268) was 75.2 µM (inactive). The GI50 (CAKI-1) was > 100 µM (inactive).
In the case of `C=CCn1c(=S)sc2c(O)ncnc21`, the GI50 (UACC-257) is reported as > 100 µM (inactive), the GI50 (A549) is reported as > 100 µM (inactive) and the GI50 (M19-MEL) is reported as > 100 µM (inactive). The GI50 (SK-MEL-5) was > 100 µM (inactive), the GI50 (ACHN) was > 100 µM (inactive) and the GI50 (K562) was > 100 µM (inactive). For the same compound, the GI50 (SNB-75) was 61.2 µM (inactive), the GI50 (HCC 2998) was > 100 µM (inactive) and the GI50 (XF498) was > 100 µM (inactive). For the same compound, the GI50 (HT-29) was > 100 µM (inactive), the GI50 (HOP-62) was > 100 µM (inactive) and the GI50 (HL-60) was > 100 µM (inactive). The GI50 (Malme-3M) was > 100 µM (inactive), the GI50 (KM-20L2) was > 100 µM (inactive) and the GI50 (SF-539) was > 100 µM (inactive). The GI50 (HCT-15) was > 100 µM, the GI50 (OVCAR-5) was > 100 µM (inactive) and the GI50 (IGROV-1) was > 100 µM (inactive). For the same compound, the GI50 (A498) was > 100 µM (inactive), the GI50 (OVCAR-3) was > 100 µM (inactive) and the GI50 (UO-31) was > 100 µM (inactive). The GI50 (TK-10) was > 100 µM (inactive), the GI50 (M14) was > 100 µM (inactive) and the GI50 (SK-MEL-2) was > 100 µM (inactive). For the same compound, the GI50 (OVCAR-8) was > 100 µM (inactive), the GI50 (HCT-116) was > 100 µM (inactive) and the GI50 (CCRF-CEM) was > 100 µM (inactive). The GI50 (SF-295) was > 100 µM (inactive), the GI50 (HOP-92) was 94 µM (inactive) and the GI50 (SNB-19) was > 100 µM (inactive). For the same compound, the GI50 (NCI-H522) was > 100 µM (inactive), the GI50 (UACC-62) was > 100 µM (inactive) and the GI50 (MOLT-4) was > 100 µM (inactive). The GI50 (SK-OV-3) was > 100 µM (inactive), the GI50 (SW-620) was > 100 µM (inactive) and the GI50 (SR) was > 100 µM (inactive). For the same compound, the GI50 (COLO 205) was > 100 µM (inactive), the GI50 (DLD-1) was > 100 µM (inactive) and the GI50 (LOX IMVI) was > 100 µM (inactive). For the same compound, the GI50 (DMS-114) was > 100 µM (inactive), the GI50 (NCI-H23) was > 100 µM (inactive) and the GI50 (SN12C) was > 100 µM (inactive). For the same compound, the GI50 (EKVX) was > 100 µM (inactive), the GI50 (NCI-H460) was > 100 µM (inactive) and the GI50 (786-0) was > 100 µM (inactive). The GI50 (U-251) was 48.8 µM (inactive), the GI50 (OVCAR-4) was > 100 µM (inactive) and the GI50 (KM12) was > 100 µM (inactive). The GI50 (LXFL 529) was > 100 µM (inactive), the GI50 (SNB-78) was > 100 µM (inactive) and the GI50 (DMS-273) was > 100 µM (inactive). The GI50 (SF-268) was > 100 µM (inactive) and the GI50 (CAKI-1) was > 100 µM (inactive).
With `COc1cc(C2c3cc4c(cc3[C@@H](NCCN3CCOCC3)C3COC(=O)[C@H]23)OCO4)cc(OC)c1O` (stereo partly drawn) the GI50 (UACC-257) was 4.4 µM (inactive), the GI50 (K562) was 3.01 µM (inactive) and the GI50 (HCC 2998) was 2.44 µM (inactive). The GI50 (RXF 393) was 2.9 µM (inactive), the GI50 (HT-29) was 5.73 µM (inactive) and the GI50 (HOP-62) was 0.782 µM (active). The GI50 (Malme-3M) was 3.76 µM (inactive), the GI50 (KM-20L2) was 5.2 µM (inactive) and the GI50 (SF-539) was 0.993 µM (active). The GI50 (HCT-15) was 2.81 µM, the GI50 (IGROV-1) was 5.52 µM (inactive) and the GI50 (OVCAR-3) was 4.13 µM (inactive). For the same compound, the GI50 (UO-31) was 2.94 µM (inactive), the GI50 (TK-10) was 5.56 µM (inactive) and the GI50 (HOP-18) was 4.52 µM (inactive). For the same compound, the GI50 (M14) was 3.98 µM (inactive), the GI50 (SK-MEL-2) was 4.89 µM (inactive) and the GI50 (OVCAR-8) was 3.05 µM (inactive). The GI50 (HCT-116) was 2.86 µM (inactive), the GI50 (SF-295) was 2.49 µM (inactive) and the GI50 (HOP-92) was 1.31 µM (inactive). For the same compound, the GI50 (SNB-19) was 4.89 µM (inactive), the GI50 (NCI-H522) was 3.16 µM (inactive) and the GI50 (UACC-62) was 2.09 µM (inactive). The GI50 (SW-620) was 2.08 µM (inactive), the GI50 (DLD-1) was 5.45 µM (inactive) and the GI50 (LOX IMVI) was 1.77 µM (inactive). For the same compound, the GI50 (SK-MEL-28) was 3.66 µM (inactive), the GI50 (EKVX) was 16.4 µM (inactive) and the GI50 (786-0) was 2.1 µM (inactive). For the same compound, the GI50 (U-251) was 1.26 µM (inactive), the GI50 (OVCAR-4) was > 17.5 µM (inactive) and the GI50 (KM12) was 4.01 µM (inactive). The GI50 (LXFL 529) was > 17.5 µM (inactive), the GI50 (SNB-78) was > 17.5 µM (inactive) and the GI50 (DMS-273) was 0.805 µM (active). For the same compound, the GI50 (SF-268) was 2.06 µM (inactive) and the GI50 (CAKI-1) was 2.08 µM (inactive).
